{"source": "patent US20040141944A1", "about": "“Inhibition of xenoreactive antibodies” (priority 1998, published 2004)", "tested_on": "kidney from a transgenic pig expressing human CD59, human CD46 and human DAF", "assay": "transgenic pig kidney transplant into TPC-treated baboon", "format": "in vivo", "method": "Immunoapheresis #1 reduced circulating IgM XNA levels to 40% of pretreatment levels. Two days later, a rebound to about 50% of pretreatment levels was observed, and after a second immunoapheresis plus administration of 250 mg TPC, circulating IgM xXNA levels were undetectable. Three days later, a rebound in IgM XNA to 35% pretreatment levels occurred, and administration of 250 mg TPC brought these levels to about 5%. […] On day 31, a kidney from a transgenic pig expressing human CD59, human CD46 and human DAF was transplanted into the baboon, and a bilateral nephrectomey was performed on the baboon native kidneys. Thus, the baboon was dependent upon the porcine kidneys for physiological function."}
{"substance": "(αGal(1,3)Gal β 1-4 GlcNAc)4-PEG [Example 410S]", "values": [{"measurement": "pathology analysis of the explanted pig kidney", "setting": "Baboon 376-96, transplant on day 31, euthanized post-op day 4", "value": "no evidence of hyperacute rejection"}, {"measurement": "function of the transplanted kidney", "setting": "Baboon 376-96, transplant on day 31 with bilateral nephrectomy", "value": "primary nonfunction"}]}
